Results taken from patent US10508109B2 (priority 2015, dated 2019).
Counter-ions that a name gives are not always drawn. Like-named read-outs stand apart in the source and are kept apart here.

How the values were obtained:
[1] = target: SUV39H2 (Homo sapiens (Human), UniProt Q9H5I1); conditions: read-out: IC50 (μM) Suv 39H2 assay; enzyme assay
[2] = tested on: CCD-18Co; assay: Cell-based assay, anti-proliferative activity (Cell Counting Kit-8, 72 hours); conditions: Homo sapiens, read-out: IC50 (μM) CCD-18Co
Procedure, shortened: (§1)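 Cells were seeded in 96-well plates and exposed to the inhibitors for 72 hours, after which growth was measured with Cell Counting Kit-8. IC50 was derived from a serial dilution series of 0, 1.5625, 3.125, 6.25, 12.5, 25, 50 and 100 micro-M.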

[3] = tested on: HCT-116; assay: as above; conditions: Homo sapiens, read-out: IC50 (μM) HCT-116
Procedure, shortened: as §1

[4] = tested on: HFL1; assay: as above; conditions: Homo sapiens, read-out: IC50 (μM) HFL1
Procedure, shortened: as §1

[5] = tested on: PC14; assay: as above; conditions: Homo sapiens, read-out: IC50 (μM) PC14
Procedure, shortened: as §1

[6] = tested on: A549; assay: as above; conditions: Homo sapiens, read-out: IC50 (μM) A549
Procedure, shortened: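 IC50 values come from growth read-outs taken after the cells' exposure to each candidate inhibitor. Cells had been plated in 96-well microtiter plates beforehand.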

[7] = CCD-18Co cells, Cell Counting Kit-8, 72 hours
[8] = HCT-116 cells, Cell Counting Kit-8, 72 hours
[9] = HFL1 cells, Cell Counting Kit-8, 72 hours
[10] = PC-14, PC14 cells, Cell Counting Kit-8, 72 hours
[11] = A549 cells, Cell Counting Kit-8, 72 hours
[12] = CCD-18Co cells, 72 hours, Cell Counting Kit-8
[13] = HCT-116 cells, 72 hours, Cell Counting Kit-8
[14] = HFL1 cells, 72 hours, Cell Counting Kit-8
[15] = PC-14, PC14 cells, 72 hours, Cell Counting Kit-8
[16] = A549 cells, 72 hours, Cell Counting Kit-8

Sequence of SUV39H2 (Q9H5I1 whole entry): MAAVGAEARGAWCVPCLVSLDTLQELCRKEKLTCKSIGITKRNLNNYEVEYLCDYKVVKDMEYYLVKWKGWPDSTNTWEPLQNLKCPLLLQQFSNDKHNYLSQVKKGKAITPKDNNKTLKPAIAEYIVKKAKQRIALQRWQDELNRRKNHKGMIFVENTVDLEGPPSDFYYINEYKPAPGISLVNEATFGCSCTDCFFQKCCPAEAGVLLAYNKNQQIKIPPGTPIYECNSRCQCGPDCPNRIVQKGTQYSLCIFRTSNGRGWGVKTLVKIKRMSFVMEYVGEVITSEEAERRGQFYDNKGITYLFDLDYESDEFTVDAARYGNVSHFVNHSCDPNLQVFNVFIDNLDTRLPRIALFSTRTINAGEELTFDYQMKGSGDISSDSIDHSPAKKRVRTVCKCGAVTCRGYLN

COc1cc(OC)c(-c2cn3ccc(N(C)C)cc3n2)cc1Cl [Example 22, 2-(5-chloro-2,4-dimethoxyphenyl)-N,N-dimethylimidazo[1,2-a]pyridin-7-amine hydrobromide]
IC50 [1]: 0.00515 µM
IC50 [2, 7]: 3.6 µM
IC50 [3, 8]: 3.3 µM
IC50 [4, 9]: 1.7 µM
IC50 [5, 10]: 1.6 µM
IC50 [6, 11]: 1.6 µM

COc1cc(OC)c(-c2cn3ccc(N4CCN(CCCN(C)C)C4=O)cc3n2)cc1Cl [Example 167, 1-(2-(5-chloro-2,4-dimethoxyphenyl)imidazo[1,2-a]pyridin-7-yl)-3-(3-(dimethylamino)propyl)imidazolidin-2-one]
IC50 [1]: 0.0124 µM
IC50 [2, 7]: 6.9 µM
IC50 [3, 8]: 6.8 µM
IC50 [4, 9]: 6.5 µM
IC50 [5, 10]: 3.9 µM
IC50 [6, 11]: 6.4 µM

COc1cc(OC)c(-c2cn3cc(NCCN)c(N4CCCC4)cc3n2)cc1Cl [Example 60, N^1-(2-(5-chloro-2,4-dimethoxyphenyl)-7-(pyrrolidin-1-yl)imidazo[1,2-a]-pyridin-6-yl)ethane-1,2-diamine]
IC50 [1]: 0.0094 µM
IC50 ([2]; CCD-18Co, 72 h): 6 µM
IC50 ([3]; HCT-116, 72 h): 6.8 µM
IC50 ([4]; HFL1, 72 h): 2 µM
IC50 ([5]; PC-14, 72 h): 2.6 µM
IC50 ([6]; A549, 72 h): 6.8 µM

COc1cc(OC)c(-c2cn3ccc(NC(=O)[C@@H](N)C(C)C)cc3n2)cc1Cl [Example 252, (S)-2-amino-N-(2-(5-chloro-2,4-dimethoxyphenyl)imidazo[1,2-a]pyridin-7-yl)-3-methylbutanamide]
IC50 [1]: 0.0423 µM
IC50 ([2]; CCD-18Co, 72 h): 4.7 µM
IC50 ([3]; HCT-116, 72 h): 5.4 µM
IC50 ([4]; HFL1, 72 h): 5.9 µM
IC50 ([5]; PC-14, 72 h): 6.3 µM
IC50 ([6]; A549, 72 h): 7.8 µM

COc1cc(OCCCN(C)C)c(-c2cn3ccc(N4CCNCC4)cc3n2)cc1Cl [Example 139, 3-{4-chloro-5-methoxy-2-[7-(piperazin-1-yl)imidazo[1,2-a]pyridin-2-yl]phenoxy}-N,N-dimethylpropan-1-amine]
IC50 [1]: 0.025 µM
IC50 [2, 7]: 2.5 µM
IC50 [3, 8]: 2.4 µM
IC50 [4, 9]: 1.6 µM
IC50 [5, 10]: 2.1 µM
IC50 [6, 11]: 1.7 µM

COc1cc(OC)c(-c2cn3cc(NCCN)c(N4CCN(S(=O)(=O)C5CC5)CC4)cc3n2)cc1Cl [Example 225, N^1-(2-(5-chloro-2,4-dimethoxyphenyl)-7-(4-(cyclopropylsulfonyl)-piperazin-1-yl)imidazo[1,2-a]pyridin-6-yl)ethane-1,2-diamine]
IC50 [1]: 0.0022 µM
IC50 [2, 12]: 7.3 µM
IC50 [3, 13]: 9.6 µM
IC50 [4, 14]: 7.3 µM
IC50 [5, 15]: 6.9 µM
IC50 [6, 16]: 10 µM

COc1cc(OC)c(-c2cn3ccc(N4CCN(C(=O)C5CC5)CC4)nc3n2)cc1Cl [Example 242, (4-(2-(5-Chloro-2,4-dimethoxyphenyl)imidazo[1,2-a]pyrimidin-7-yl)-piperazin-1-yl)(cyclopropyl)methanone]
IC50 [1]: 0.0154 µM
IC50 [2, 12]: 10 µM
IC50 [3, 13]: 10 µM
IC50 [4, 14]: 10 µM
IC50 [5, 15]: 6.3 µM
IC50 [6, 16]: 10 µM

COc1cc(OC)c(-c2cn3ccc(N4CCC(NS(=O)(=O)CC(C)C)CC4)cc3n2)cc1Cl [Example 185, N-{1-[2-(5-Chloro-2,4-dimethoxyphenyl)imidazo[1,2-a]pyridin-7-yl]piperidin-4-yl}-2-methylpropane-1-sulfonamide]
IC50 [1]: 0.0127 µM
IC50 [2, 7]: 1.9 µM
IC50 [3, 8]: 1.1 µM
IC50 [4, 9]: 2 µM
IC50 [5, 10]: 1.4 µM
IC50 [6, 11]: 1.6 µM

COc1cc(OC)c(-c2cn3ccc(N4CCC(NS(=O)(=O)C(F)(F)F)CC4)cc3n2)cc1Cl [Example 176, N-{1-[2-(5-chloro-2,4-dimethoxyphenyl)imidazo[1,2-a]pyridin-7-yl]piperidin-4-yl}-1,1,1-trifluoromethanesulfonamide]
IC50 [1]: 0.0641 µM
IC50 [2, 7]: 0.53 µM
IC50 [3, 8]: 0.55 µM
IC50 [4, 9]: 0.36 µM
IC50 [5, 10]: 0.75 µM
IC50 [6, 11]: 0.51 µM

CCS(=O)(=O)N1CCCN(c2ccn3cc(-c4cc(Cl)c(OC)cc4OC)nc3c2)CC1 [Example 206, 2-(5-chloro-2,4-dimethoxyphenyl)-7-[4-(ethylsulfonyl)-1,4-diazepan-1-yl]imidazo[1,2-a]pyridine]
IC50 [1]: 0.00561 µM
IC50 [2, 7]: 2.9 µM
IC50 [3, 8]: 3.3 µM
IC50 [4, 9]: 2.3 µM
IC50 [5, 10]: 1.6 µM
IC50 [6, 11]: 2.6 µM

COc1cc(OC)c(-c2cn3ccc(N4CCN(Cc5ccncc5)CC4)cc3n2)cc1Cl [Example 292, 2-(5-chloro-2,4-dimethoxyphenyl)-7-(4-(pyridin-4-ylmethyl)piperazin-1-yl)imidazo[1,2-a]pyridine]
IC50 [1]: 0.00637 µM
IC50 [2, 12]: 1.3 µM
IC50 [3, 13]: 1.3 µM
IC50 [4, 14]: 1.2 µM
IC50 [5, 15]: 0.68 µM
IC50 [6, 16]: 1.2 µM

COc1cc(OC)c(-c2cn3cc(NCCN)c(N4CCOCC4)cc3n2)cc1Cl [Example 89, N^1-(2-(5-chloro-2,4-dimethoxyphenyl)-7-morpholinoimidazo[1,2-a]-pyridin-6-yl)ethane-1,2-diamine]
IC50 [1]: 0.00335 µM
IC50 [2, 7]: 3 µM
IC50 [3, 8]: 4.4 µM
IC50 [4, 9]: 1.6 µM
IC50 [5, 10]: 2.7 µM
IC50 [6, 11]: 3 µM

COc1cc(OC)c(-c2cn3ccc(N4CCN(c5ccnc(N6CCCCC6)n5)CC4)cc3n2)cc1Cl [Example 295, 2-(5-chloro-2,4-dimethoxyphenyl)-7-(4-(2-(piperidin-1-yl)pyrimidin-4-yl)piperazin-1-yl)imidazo[1,2-a]pyridine]
IC50 [1]: 0.0598 µM
IC50 [2, 12]: 1.3 µM
IC50 [3, 13]: 0.93 µM
IC50 [4, 14]: 1.4 µM
IC50 [5, 15]: 0.93 µM
IC50 [6, 16]: 0.89 µM

COc1cc(OC)c(-c2cn3ccc(N4CCN(CCF)CC4)cc3n2)cc1Cl [Example 104, 2-(5-chloro-2,4-dimethoxyphenyl)-7-(4-(2-fluoroethyl)piperazin-1-yl)-imidazo[1,2-a]pyridine]
IC50 [1]: 0.00666 µM
IC50 [2, 7]: 8.9 µM
IC50 [3, 8]: 8.3 µM
IC50 [4, 9]: 4.2 µM
IC50 [5, 10]: 4.7 µM
IC50 [6, 11]: 6.7 µM

COc1cc(OC)c(-c2cn3ccc(N4CCC(NS(=O)(=O)C5CC5)C4)cc3n2)cc1Cl (stereo not drawn) [Example 63, N-(1-(2-(5-chloro-2,4-dimethoxyphenyl)imidazo[1,2-a]pyridine-7-yl)pyrrolidin-3-yl)cyclopropanesulfonamide]
IC50 [1]: 0.00395 µM
IC50 [2, 7]: 3.8 µM
IC50 [3, 8]: 1.6 µM
IC50 [4, 9]: 1.7 µM
IC50 [5, 10]: 2.1 µM
IC50 [6, 11]: 3 µM

COc1cc(OC)c(-c2cn3cc(NCCNC(C)=O)c(N4CCOCC4)cc3n2)cc1Cl [Example 224, N-(2-((2-(5-chloro-2,4-dimethoxyphenyl)-7-morpholinoimidazo[1,2-a]-pyridin-6-yl)amino)ethyl)acetamide]
IC50 [1]: 0.0337 µM
IC50 ([2]; CCD-18Co, 72 h): 10 µM
IC50 ([3]; HCT-116, 72 h): 10 µM
IC50 ([4]; HFL1, 72 h): 10 µM
IC50 ([5]; PC-14, 72 h): 10 µM
IC50 ([6]; A549, 72 h): 10 µM

CCCCCNC1CCN(c2ccn3cc(-c4cc(Cl)c(OC)cc4OCCCN(C)C)nc3c2)CC1 [Example 165, 1-(2-{5-chloro-2-[3-(dimethylamino)propoxy]-4-methoxyphenyl}imidazo-[1,2-a]pyridin-7-yl)-N-pentylpiperidin-4-amine]
IC50 [1]: 0.0593 µM
IC50 [2, 7]: 2.1 µM
IC50 [3, 8]: 1.7 µM
IC50 [4, 9]: 1.7 µM
IC50 [5, 10]: 2.2 µM
IC50 [6, 11]: 2.2 µM

COc1cc(OC)c(-c2cn3ccc(NC(=O)[C@H](C(C)C)N(C)C)cc3n2)cc1Cl [Example 272, (S)—N-(2-(5-chloro-2,4-dimethoxyphenyl)imidazo[1,2-a]pyridin-7-yl)-2-(dimethylamino)-3-methylbutanamide]
IC50 [1]: 0.0961 µM
IC50 ([2]; CCD-18Co, 72 h): 0.47 µM
IC50 ([3]; HCT-116, 72 h): 2.9 µM
IC50 ([4]; HFL1, 72 h): 0.45 µM
IC50 ([5]; PC-14, 72 h): 0.98 µM
IC50 ([6]; A549, 72 h): 0.86 µM
